Assays:
Felis catus [1] = species: Felis catus; assay: Compound tested for contractility in isolated cat papillary muscle at 10 e-4 M.; assay type: functional
Felis catus [2] = species: Felis catus; assay: Compound tested for contractility in isolated cat papillary muscle at 10 e-5 M.; assay type: functional
Felis catus [3] = species: Felis catus; assay: Response ratio = (percent increase to drug)/(percent increase to 10 E-4 M isoproterenol); assay type: functional
Felis catus [4] = species: Felis catus; assay: Response ratio = (percent increase to drug)/(percent increase to 10 E-5 M isoproterenol); assay type: functional
Canis familiaris [5] = assay: Compound tested for contractility in anesthetized dog when administered intravenously.; assay type: functional; conditions: Canis lupus familiaris, iv
Canis familiaris [6] = assay: Percent change in heart rate in anesthetized dog; assay type: functional, Canis lupus familiaris
Canis familiaris [7] = assay: Percent change in mean arterial blood pressure in anesthetized dog; assay type: functional, Canis lupus familiaris

SMILES	Control (Felis catus [1]) [%]	Control (Felis catus [2]) [%]	Response ratio (Felis catus [3])	Response ratio (Felis catus [4])	ED50 (Canis familiaris [5]) [mg/kg]	Change (Canis familiaris [6]) [%]	Change (Canis familiaris [7]) [%]
COc1cccc(-c2nc3cc[nH]cc-3n2)c1	214	115	1.58	0.21	–	–	–
COc1cc(C)ccc1-c1nc2cc[nH]cc-2n1	202	117	1.42	0.24	0.28	8	-7
COc1cccc(OC)c1-c1nc2cc[nH]cc-2n1	184	78	1.16	-0.31	–	–	–
CCSCCOc1cc(OC)ccc1-c1nc2cc[nH]cc-2n1	134	128	0.47	0.39	1	20	-21
COc1cc(OC)cc(-c2nc3cc[nH]cc-3n2)c1	179	115	1.1	0.21	–	–	–
COc1cc(-c2nc3cc[nH]cc-3n2)cc(OC)c1OC	151	109	0.71	0.12	–	–	–
CCCOc1cc(SC)ccc1-c1nc2cc[nH]cc-2n1	–	–	–	–	1.2	-3	-62
CS(=O)(=O)c1ccc(-c2nc3cc[nH]cc-3n2)cc1	137	117	0.51	0.24	7.5	10	2
Clc1ccc(-c2nc3cc[nH]cc-3n2)c(Cl)c1	171	116	0.99	0.22	0.7	17	-22
COc1ccc(-c2nc3cc[nH]cc-3n2)c(OCCCSC)c1	129	118	0.41	0.25	–	–	–
COc1cc(N(C)C)ccc1-c1nc2cc[nH]cc-2n1	165	102	0.9	0.03	–	–	–
COCCOc1cc(OC)ccc1-c1nc2cc[nH]cc-2n1	116	109	0.22	0.12	–	–	–
CS(=O)(=O)c1ccc(-c2nc3ccc[nH]c-3n2)cc1	–	–	–	–	18	8	-2
COc1cc(OS(C)(=O)=O)ccc1-c1nc2cc[nH]cc-2n1	326	240	3.13	1.94	0.006	17	-25
COc1ccc(OC)c(-c2nc3cc[nH]cc-3n2)c1	169	110	0.96	0.14	–	–	–
CSc1ccc(-c2nc3cc[nH]cc-3n2)c(SC)c1	161	113	0.84	0.18	–	–	–
COc1ccccc1-c1nc2cc[nH]cc-2n1	200	120	1.38	0.28	–	–	–
COc1ccc(-c2nc3cc[nH]cc-3n2)c([S+](C)[O-])c1 (stereo unspecified)	116	107	0.22	0.1	–	–	–
CCOc1cc(OC)ccc1-c1nc2cc[nH]cc-2n1	130	108	0.41	0.11	–	–	–
COc1ccc(-c2nc3cc[nH]cc-3n2)c(OCCSC)c1	140	122	0.55	0.3	1.1	4	-21
c1ccc(Sc2ccc(-c3nc4cc[nH]cc-4n3)cc2)cc1	124	122	0.33	0.31	–	–	–
Cc1cccc(-c2nc3cc[nH]cc-3n2)c1	195	118	1.32	0.25	1	17	-20
COc1cc(C(F)(F)F)ccc1-c1nc2cc[nH]cc-2n1	135	139	0.49	0.54	0.009	10	-12
COc1ccc(-c2nc3ccc[nH]c-3n2)cc1OC	116.5	103	0.22	0.04	–	–	–
Fc1ccccc1-c1nc2cc[nH]cc-2n1	145	107	0.63	0.1	–	–	–
N#Cc1ccc(-c2nc3ccncc3[nH]2)cc1	164	112	0.89	0.16	–	–	–
COc1cc(F)ccc1-c1nc2cc[nH]cc-2n1	142	120	0.58	0.28	–	–	–

SMILES	Control (Felis catus [1]) [%]	Control (Felis catus [2]) [%]	Response ratio (Felis catus [3])	Response ratio (Felis catus [4])	ED50 (Canis familiaris [5]) [mg/kg]	Change (Canis familiaris [6]) [%]	Change (Canis familiaris [7]) [%]
COc1cc(I)ccc1-c1nc2cc[nH]cc-2n1	159	139	0.82	0.54	–	–	–
CSc1ccc(-c2nc3ccc[nH]c-3n2)cc1	–	–	–	–	1.9	27	-7
COCCCOc1cc(OC)ccc1-c1nc2cc[nH]cc-2n1	147	99	0.65	-0.01	–	–	–
COc1cc(OCc2ccccc2)ccc1-c1nc2cc[nH]cc-2n1	105	112	0.07	0.17	–	–	–
CCSc1ccc(-c2nc3cc[nH]cc-3n2)c(OC)c1	196	136	1.33	0.5	–	–	–
COc1ccc(-c2nc3cc[nH]cc-3n2)c(OCCSc2ccccc2)c1	109	103	0.12	0.04	–	–	–
c1ccc(-c2nc3ccccc3[nH]2)cc1	134	105	0.47	0.07	–	–	–
CC[S+]([O-])c1ccc(-c2nc3cc[nH]cc-3n2)c(OC)c1 (stereo unspecified)	170	136	1	0.5	–	–	–
CCOc1cc(SC)ccc1-c1nc2cc[nH]cc-2n1	149	122	0.68	0.3	–	–	–
COc1ccc(-c2nc3cc[nH]cc-3n2)c(C)c1	145	119	0.63	0.26	–	–	–
CCCCCOc1cc(OC)ccc1-c1nc2cc[nH]cc-2n1	81	105	-0.26	0.07	–	–	–
COc1cc(OC)c(-c2nc3cc[nH]cc-3n2)c(OC)c1	137	103	0.51	0.04	–	–	–
Cc1cccc(-c2nc3ccc[nH]c-3n2)c1	–	–	–	–	2.8	18	-27
COc1ccc(-c2nc3cc[nH]cc-3n2)c(SC)c1	204	114	1.44	0.19	–	–	–
COc1c(C)cc(-c2nc3cc[nH]cc-3n2)cc1C	213	121	1.57	0.29	–	–	–
Clc1cc(Cl)cc(-c2nc3cc[nH]cc-3n2)c1	146	115	0.64	0.21	–	–	–
CCCSc1ccc(-c2nc3cc[nH]cc-3n2)c(OC)c1	139	125	0.54	0.35	–	–	–
Fc1ccc(-c2nc3cc[nH]cc-3n2)cc1	163	105	0.87	0.06	–	–	–
COc1cc(SC)ccc1-c1nc2c[nH]cnc-2n1	131	109	0.43	0.12	–	–	–
COc1ccc(-c2nc3cc[nH]cc-3n2)c(OCC[S+]([O-])c2ccccc2)c1 (stereo unspecified)	96	107	-0.05	0.1	–	–	–
Cc1ccc(-c2nc3cc[nH]cc-3n2)cc1	196	97	0.96	-0.04	–	–	–
COc1cccc(-c2nc3cc[nH]cc-3n2)c1OC	90	102	-0.14	0.03	–	–	–
Fc1cccc(-c2nc3cc[nH]cc-3n2)c1	157	112	0.79	0.17	–	–	–
CCCCOc1cc(OC)ccc1-c1nc2cc[nH]cc-2n1	140	100	0.55	0	–	–	–
COc1cc(OC)c(-c2nc3cc[nH]cc-3n2)cc1OC	129	108	0.4	0.12	–	–	–
COc1cc(Br)ccc1-c1nc2cc[nH]cc-2n1	175	134	1.04	0.47	–	–	–
COc1cc(-c2nc3cc[nH]cc-3n2)ccc1[S+](C)[O-] (stereo unspecified)	154	111	0.75	0.15	–	–	–
